# Test results taken from US11358947B2, “Substituted 2-acylamino-cycloalkylthiophene-3-carboxylic acid arylamides as inhibitors of calcium-activated chloride channel TMEM16A” (THE REGENTS OF THE UNIVERSITY OF CALIFORNIA, priority 2017, dated 2022).
# Values joined by “and” are separate entries in the source; they are usually repeats but may differ in a detail not shown here. Identical values can stand only once.
# Legend:
# FRT null cells = assay: Cytotoxicity by Alamar Blue assay in FRT cells; assay type: cell-based, rat; conditions: 8 h
# Method: (§1) Concentration-dependent inhibition of TMEM16A measured by short-circuit current assay; TMEM16B and non-TMEM16 anion conductance measured using a fluorescence plate reader assay using FRT and HT-29 cells respectively; cell viability measured in FRT null cells.
# We further assayed the compound potency on endogenous non-TMEM16A. Ca^2+-activated Cl^− channel in HT-29 cells.
# Cytotoxicity. FRT cells were cultured overnight in black 96-well Costar microplates and incubated with 5 μM test compounds for 8 h. Cytotoxicity was measured by Alamar Blue assay (Invitrogen, Carlsbad, Calif.) as per the manufacturer's instructions.
# SW-480 cells = assay: SW-480 cell proliferation, AlamarBlue after 72 h; assay type: cell-based; conditions: Homo sapiens, SW480; AlamarBlue after 72 h of drug treatment; read-out: IC50 inhibition of SW-480 cell proliferation
# Method: Compounds according to the present disclosure (structures shown in FIG. 5B) were tested for their inhibitory effect on proliferation of SW-480 cell line.
# SW-480 cells were cultured on plastic in Leibovitz L15 medium supplemented with 10% fetal bovine serum, 2 mM L-glutamine, 100 units/mL penicillin, and 100 μg/mL streptomycin. The cells were incubated at 37° C. without CO2.
# SW-480 cells were plated into black 96-well microplates (Corning-Costar Corp., New York, N.Y.) at 10% seeding. The cells were treated with test compounds dissolved in DMSO in serial dilution while maintaining the final concentration of DMSO at 0.5%. Plated cells were then incubated for 72 h at 37° C. Cell proliferation was quantified using the AlamarBlue assay (Invitrogen, Carlsbad, Calif.) as per the manufacturer's instructions. Data was normalized against untreated control cells that were lysed for 10 minutes using Triton-X100 (0.1% in PBS).
# TMEM16A [1] = molecular target: T1, TMEM16A (Homo sapiens, UniProt Q5XXA6); assay: TMEM16A functional fluorescence plate reader (FPR) assay, iodide influx in FRT cells with YFP; assay type: cell-based; conditions: TMEM16A-expressing FRT cells, compound 10 min before iodide/ATP
# T1 sequence (Q5XXA6 1-986): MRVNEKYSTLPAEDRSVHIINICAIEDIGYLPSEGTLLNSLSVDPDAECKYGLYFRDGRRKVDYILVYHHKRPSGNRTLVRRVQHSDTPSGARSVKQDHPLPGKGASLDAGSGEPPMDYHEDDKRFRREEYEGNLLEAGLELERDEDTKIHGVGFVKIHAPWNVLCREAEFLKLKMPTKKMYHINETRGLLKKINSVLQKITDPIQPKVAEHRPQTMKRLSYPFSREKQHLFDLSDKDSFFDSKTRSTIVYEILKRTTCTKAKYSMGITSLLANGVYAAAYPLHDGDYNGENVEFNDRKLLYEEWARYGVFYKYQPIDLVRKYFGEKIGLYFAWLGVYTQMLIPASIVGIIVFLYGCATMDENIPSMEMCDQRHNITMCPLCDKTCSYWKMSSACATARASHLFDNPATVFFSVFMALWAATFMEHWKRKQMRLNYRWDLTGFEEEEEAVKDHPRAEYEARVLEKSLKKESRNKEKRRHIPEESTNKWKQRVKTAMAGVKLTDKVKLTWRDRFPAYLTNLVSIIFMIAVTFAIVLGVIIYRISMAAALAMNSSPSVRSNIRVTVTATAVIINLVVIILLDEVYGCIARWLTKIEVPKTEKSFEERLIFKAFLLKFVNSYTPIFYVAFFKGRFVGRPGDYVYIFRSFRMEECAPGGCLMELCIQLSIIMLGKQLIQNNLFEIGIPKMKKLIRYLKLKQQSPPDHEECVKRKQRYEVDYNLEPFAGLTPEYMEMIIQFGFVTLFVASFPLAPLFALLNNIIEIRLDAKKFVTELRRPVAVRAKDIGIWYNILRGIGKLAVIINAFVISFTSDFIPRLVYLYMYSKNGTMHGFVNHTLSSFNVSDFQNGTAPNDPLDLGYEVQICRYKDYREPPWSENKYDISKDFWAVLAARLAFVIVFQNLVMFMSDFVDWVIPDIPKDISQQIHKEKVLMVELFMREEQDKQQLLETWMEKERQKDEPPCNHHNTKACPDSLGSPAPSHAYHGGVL
# Method: A high-throughput screening assay was previously developed to identify small molecule inhibitors of TMEM16A. […] The assay involved addition of test compounds to the cells for 10 min in a physiological chloride-containing solution, followed by addition of an iodide solution containing ATP. TMEM16A-facilitated iodide influx was determined from the initial time course of decreasing YFP fluorescence.
# 2-Acylamino-cycloalkylthiophene-3-carboxylic acid arylamides 6aa-6bw were initially evaluated for inhibition of TMEM16A anion channel function using a cell-based functional plate reader assay as reported.
# Yields (%) are of the isolated or purified products. IC50 (μM) for inhibition of TMEM16A anion conductance using a fluorescence plate reader (FPR) assay.
# Cell lines and culture. Fischer Rat Thyroid (FRT) cells stably co-expressing TMEM16A, TMEM16B and human wild-type CFTR and the halide-sensitive yellow fluorescent protein (YFP)-H148Q were cultured as described. […] For plate reader assays, cells were plated in black 96-well microplates (Corning-Costar Corp., New York, N.Y.) at a density of 20,000 cells per well and assayed 24-48 hours after plating.
# TMEM16A functional assay. TMEM16A functional plate-reader assay was done as previously described. […] Test compounds (0.5 μl in DMSO) were added to each well at specified concentration. […] The initial rate of I− influx following each of the solution additions was computed from fluorescence data by nonlinear regression. TMEM16B activity was assayed similarly as described using FRT cells co-expressing YFP and TMEM16B.
# TMEM16A [2] = molecular target: T1, TMEM16A; assay: Short-circuit current assay in TMEM16A-expressing FRT cells; assay type: cell-based
# Excerpt: Measurements were done in FRT cells expressing TMEM16A.
# as §1
# Short-circuit current measurement. Short-circuit current measurements were done as described. (See Piechowicz, K. A. et al., J Enzyme Inhib Med Chem 2016, 1-7.) Briefly, Snapwell inserts (Corning Costar, Corning, N.Y.) containing TMEM16A-expressing FRT cells were mounted in Ussing chambers (Physiological instruments, San Diego, Calif.). The hemichambers were filled with 5 ml of HCO3^− buffered solution (basolateral) and half-Cl^− solution (apical), and the basolateral membrane was permeabilized with 250 μg/ml amphotericin B. Solutions were bubbled with 95% O2/5% CO2 and maintained at 37° C., and short-circuit current was measured on a DVC-1000 voltage clamp (World Precision Instruments Inc., Sarasota, Fla.) using Ag/AgCl electrodes and 3 M KCl agar bridges.
smiles,measurement,setting,value
"Cc1ccccc1NC(=O)c1c(NC(=O)C(F)(F)F)sc2c1CCCCC2 [Compound 6aa, 2-(2,2,2-Trifluoro-acetylamino)-5,6,7,8-tetrahydro-4H-cyclohepta[b]thiophene-3-carboxylic acid o-tolylamide]",Cellular survival % at 5 μM,FRT null cells,99%
same,IC50,SW-480 cells,950 nM
same,IC50,TMEM16A [1],420 nM
same,IC50,TMEM16A [2],260 nM
"Cc1ccccc1NC(=O)c1c(NC(=O)C(F)(F)Br)sc2c1CCCCC2 [Compound 6bm, 2-(2-Bromo-2,2-difluoro-acetylamino)-5,6,7,8-tetrahydro-4H-cyclohepta[b]thiophene-3-carboxylic acid o-tolylamide]",Cellular survival % at 5 μM,FRT null cells,97%
same,IC50,SW-480 cells,7000 nM
same,IC50,TMEM16A [1],80 to 180 nM and 83 nM
same,IC50,TMEM16A [2],30 nM
